Assays:
PC3-M cells = experiment: Three day MTT cell growth inhibition assay, PC3-M cells; type: cell-based, human
[1] = biological target: T1, phosphorylation of HSP90β (Homo sapiens, UniProt P08238+Q16543); experiment: HSP90β/CDC37 heterocomplex in vitro kinase assay with SGK3 and MAP3K6; type: biochemical
T1 construct: MAP3K6: Abnova SGK3: #PV3859; MAP3K6: #P5592; host or cells: E. coli for HSP90β and CDC37
Description: HEK293T cells were transfected with 1 of 420 different protein kinases, treated with 10 μM KBU2046 (N=5 replicates) or vehicle control (N=5) for three days, and LUMIER assays performed. The N=17 kinases that gave significant findings (Student's t-test <0.05) in the same direction in each of two separate experiments are depicted. Each separate treatment and kinase condition in each of two separate experiments was conducted in replicates of N=5. […] FIGS. 6c and 6d show the results of the wound healing assay. PC3 cells were transfected with siRNA targeting RAF1 (si-Raf1) or non-targeting siRNA (si-control), treated with KBU2046 or vehicle as above, and RAF1 protein measured by Western blot (c) and effects upon wound healing measured (d). […] Purified recombinant HSP90β, CDC37, and RAF1 were combined with KBU2046, as indicated, incubated in an in vitro kinase assay for the indicated times, and Western blot for RAF1-Ser^338 phosphorylation performed. FIGS. 6f and 6g show the effect on HSP90β/CDC37 heterocomplex formation and function in vitro. Purified recombinant HSP90β, CDC37, RAF1, SGK3 or MAP3K6 were combined and treated with KBU2046 or vehicle control, as indicated, incubated in an in vitro kinase assay for the indicated times, and Western blot performed, as denoted. Experiments were repeated at separate times at least once, with similar results. […]

PC3 or PC3M cells = experiment: Scratch wound healing assay with siRNA knockdown; type: cell-based, human
Description: HEK293T cells were transfected with 1 of 420 different protein kinases, treated with 10 μM KBU2046 (N=5 replicates) or vehicle control (N=5) for three days, and LUMIER assays performed. The N=17 kinases that gave significant findings (Student's t-test <0.05) in the same direction in each of two separate experiments are depicted. Each separate treatment and kinase condition in each of two separate experiments was conducted in replicates of N=5. […] FIGS. 6c and 6d show the results of the wound healing assay. PC3 cells were transfected with siRNA targeting RAF1 (si-Raf1) or non-targeting siRNA (si-control), treated with KBU2046 or vehicle as above, and RAF1 protein measured by Western blot (c) and effects upon wound healing measured (d). […] Purified recombinant HSP90β, CDC37, and RAF1 were combined with KBU2046, as indicated, incubated in an in vitro kinase assay for the indicated times, and Western blot for RAF1-Ser^338 phosphorylation performed. FIGS. 6f and 6g show the effect on HSP90β/CDC37 heterocomplex formation and function in vitro. Purified recombinant HSP90β, CDC37, RAF1, SGK3 or MAP3K6 were combined and treated with KBU2046 or vehicle control, as indicated, incubated in an in vitro kinase assay for the indicated times, and Western blot performed, as denoted. Experiments were repeated at separate times at least once, with similar results.
FIGS. 24b-d show the results of the wound healing assay. PC3 or PC3M cells were treated+/−KBU2046 and with siRNA to the denoted gene, or with non-targeting control siRNA (NT), and effects upon transcript (b) or protein expression (c) measured by qRT/PCR or Western blot, respectively. For qRT/PCR, values are expressed as the target gene/GAPDH ratio, normalized to that of NT/−KBU2046 cells. Under the same conditions, wound healing assays were performed (d).
Scratch Wound Assays. Cells were transfected with the indicated si-RNA constructs per manufacture protocol (GE-Dharmacon), cultured 48 hrs with 10 μM KBU2046 or vehicle, and scratch wound assay performed as described (Xiao, X. et al., Oncotarget 6, 3225-39 (2015)). […]

CDC37 = biological target: T2, CDC37 (Homo sapiens, UniProt Q16543); experiment: Biophysical binding assays and DARTS, isolated CDC37; conditions: ITC, thermal shift, biolayer interferometry, dynamic light scattering, DARTS
T2 construct: made in house; host or cells: BL-21 DE-3 E. coli, pET15b
T2 sequence (Q16543 whole entry): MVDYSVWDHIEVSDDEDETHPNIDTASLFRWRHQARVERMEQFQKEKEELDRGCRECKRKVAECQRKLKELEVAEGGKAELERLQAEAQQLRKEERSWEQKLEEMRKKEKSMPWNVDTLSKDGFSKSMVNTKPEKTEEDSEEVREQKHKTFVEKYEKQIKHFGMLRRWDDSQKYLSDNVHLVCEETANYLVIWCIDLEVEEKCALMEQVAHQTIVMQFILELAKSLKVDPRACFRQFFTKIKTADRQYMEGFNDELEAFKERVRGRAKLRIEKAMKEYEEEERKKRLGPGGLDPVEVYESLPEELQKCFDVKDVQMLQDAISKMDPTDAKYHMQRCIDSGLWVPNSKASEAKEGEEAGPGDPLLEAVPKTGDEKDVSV
Description: Studies used purified recombinant HSP90β or CDC37. […] For DARTS assay, HSP90β or CDC37 were individually pre-incubated with KBU2046, thermolysin added, and reaction products were separated by SDS PAGE and visualized by silver stain (depicted above). NTco—no thermolysin control. However, when the DARTS assay was conducted with both HSP90β and CDC37 present, KBU2046 protected both proteins from degradation in a concentration-dependent manner (see, FIG. 5a).
DARTS provides a sensitive measure of ligand-induced changes in protein structure and dynamics by measuring the ability of a ligand to protect its target from protease digestion (Lomenick, B. et al., Proc Natl Acad Sci USA 106, 21984-9 (2009)). […] The intensity of the CDC37 band increased, that of the HSP90β degradation product decreased, and both effects were statistically significant, concentration-dependent and were evident at 10 nM. […] Further, these findings also indicate that KBU2046 is not acting as a classical HSP90 inhibitor.
Biophysical and Biochemical Binding Assays. […]

T1 sequence (P08238 2-724): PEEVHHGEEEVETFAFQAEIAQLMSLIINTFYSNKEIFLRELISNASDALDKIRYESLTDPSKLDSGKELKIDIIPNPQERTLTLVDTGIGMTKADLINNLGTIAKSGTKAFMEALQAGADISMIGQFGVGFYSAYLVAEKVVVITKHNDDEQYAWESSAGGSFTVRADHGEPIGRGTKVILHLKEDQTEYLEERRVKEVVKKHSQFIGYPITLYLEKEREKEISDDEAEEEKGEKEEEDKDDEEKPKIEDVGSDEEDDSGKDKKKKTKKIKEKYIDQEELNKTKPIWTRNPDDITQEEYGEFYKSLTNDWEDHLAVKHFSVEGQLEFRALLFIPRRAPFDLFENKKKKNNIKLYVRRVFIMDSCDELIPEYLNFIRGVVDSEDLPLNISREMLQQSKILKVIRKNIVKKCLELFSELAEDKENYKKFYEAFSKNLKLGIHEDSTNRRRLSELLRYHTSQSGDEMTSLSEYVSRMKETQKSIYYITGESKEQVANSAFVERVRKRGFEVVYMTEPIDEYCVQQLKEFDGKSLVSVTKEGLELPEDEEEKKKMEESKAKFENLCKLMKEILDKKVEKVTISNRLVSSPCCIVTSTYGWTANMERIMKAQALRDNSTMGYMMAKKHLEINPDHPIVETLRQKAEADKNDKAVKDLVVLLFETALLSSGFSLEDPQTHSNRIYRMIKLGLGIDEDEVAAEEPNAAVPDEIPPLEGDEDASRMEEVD
T1 sequence (Q16543 whole entry): as the sequence (Q16543 whole entry) above

`O=C1c2ccccc2OCC1c1ccc(F)cc1` (racemic) [KBU2046, (±)-3(4-fluorophenyl)chroman-4-one] was tested, and the cell growth inhibition (PC3-M cells) was “no growth inhibitory effects”, the “SGK3-mediated phosphorylation of HSP90β” value ([1]; MAP3K6 added) was “also decreases in the presence of KBU2046” and the “SGK3-mediated phosphorylation of HSP90β” value ([1]; SGK3 present) was “phosphorylation was further increased”. For the same compound, the efficacy on motility (PC3 or PC3M cells; SGK3 knockdown) was “still retained efficacy”, the “RAF1 protein expression levels” value (PC3 or PC3M cells; Western blot, cells) was “did not alter RAF1 protein expression levels” and the efficacy on motility (PC3 or PC3M cells; knockdown of RAF1 or of RIPK1) was “mitigated KBU2046 efficacy”. For the same compound, the “binding to CDC37” value (CDC37) was “no evidence of KBU2046 binding”.
